PubChem BioAssay (NCI)
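How tested: cells in 96-well plates exposed to compound for 48 hours at five concentrations. Abbreviation: GI50, concentration required for 50% inhibition of growth. TGI is the concentration that stops growth completely.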

Assays:
Assay in all cases: NCI tumour cell line growth inhibition, 48 h
A549 NSCLC = tested on: A549 NSCLC
TK-10 renal = tested on: TK-10 renal
HCT-15 colon = tested on: HCT-15 colon
ACHN renal = tested on: ACHN renal
SW-620 colon = tested on: SW-620 colon
LOX IMVI melanoma = tested on: LOX IMVI melanoma
RXF 393 renal = tested on: RXF 393 renal
OVCAR-4 ovarian = tested on: OVCAR-4 ovarian
RPMI-8226 leukemia = tested on: RPMI-8226 leukemia
SK-MEL-5 melanoma = tested on: SK-MEL-5 melanoma

SMILES	GI50 (A549 NSCLC) [µM]	TGI (A549 NSCLC) [µM]	GI50 (TK-10 renal) [µM]	TGI (TK-10 renal) [µM]	GI50 (HCT-15 colon) [µM]	TGI (HCT-15 colon) [µM]	GI50 (ACHN renal) [µM]	TGI (ACHN renal) [µM]	GI50 (SW-620 colon) [µM]	TGI (SW-620 colon) [µM]	GI50 (LOX IMVI melanoma) [µM]	TGI (LOX IMVI melanoma) [µM]	GI50 (RXF 393 renal) [µM]	TGI (RXF 393 renal) [µM]	GI50 (OVCAR-4 ovarian) [µM]	TGI (OVCAR-4 ovarian) [µM]	GI50 (RPMI-8226 leukemia) [µM]	TGI (RPMI-8226 leukemia) [µM]	GI50 (SK-MEL-5 melanoma) [µM]	TGI (SK-MEL-5 melanoma) [µM]
Cn1cccc1-c1cc(-c2ccccc2)nc(N)c1C#N	> 100	> 100	> 100	> 100	> 100	> 100	> 100	> 100	> 100	> 100	> 100	> 100	> 100	> 100	> 68.6	> 100	55.9	> 100	98.7	> 100
CC1=C(SCCC(=O)OC(C[Se]C2=C(C)C(=O)c3ccccc3C2=O)C(=O)NC(C)(C)C)C(=O)c2ccccc2C1=O (stereo not given)	1.11	4.59	2.52	4.1	1.47	3.11	1.56	2.9	1.36	2.87	1.4	2.9	1.73	3.33	1.45	2.76	0.507	2.71	1.52	2.86
CC1(C2CCC3(C)C(C2)C3Sc2ccccc2)OCCO1 (stereo not given)	–	68	–	> 100	–	> 100	–	46.9	–	50.1	–	49.6	–	32.4	–	81.7	–	32.7	–	34
NC(=O)c1nc(-c2ccc(Cl)c(Cl)c2)nc2ccccc12	–	> 100	–	> 100	–	> 100	–	> 100	–	> 100	–	> 100	–	> 22.2	–	> 100	–	> 100	–	> 100
CCOc1ccccc1N=Cc1c2ccccc2cc2ccccc12	–	80.9	–	67.2	–	> 83.5	–	> 93.3	–	> 100	–	38.2	–	37.4	–	> 74	–	56.5	–	> 83.8
COc1ccc2c(c1)[nH]c1c3ccc(OC)cc3oc(=O)c21	–	> 100	–	> 100	–	> 100	–	> 100	–	> 100	–	> 100	–	> 100	–	> 100	–	> 100	–	> 100
NC1=C(O)C(=O)C(c2c[nH]c3ccc(OCc4ccccc4)cc23)O1 (stereo not given)	–	> 100	–	> 100	–	> 100	–	> 100	–	> 100	–	> 100	–	> 100	–	> 100	–	> 100	–	> 100
CCCCCCCCc1cc(O)ccc1O	28.6	> 100	1.46	22.7	16.4	38	20.4	50.9	21.6	46.1	12.8	25.8	10.7	24.9	14.8	39.2	10.5	48.5	17	30.7
C1CC[N-]CC1.CC(=N\O)/C(C)=N/O.CC(=N\O)/C(C)=N/O.C[CH-]C(C)O.[Co+2]	47.3	> 100	23.8	60.4	30	> 100	23.8	81.2	23.5	66.8	17.8	33.7	15	43.8	33.1	> 100	18.8	43.4	20.1	43.1
CNC(=O)c1cc(-c2ccc(F)cc2)cc(-c2ccc(S(=O)(=O)N3CCCC3)cc2)c1N	11.9	> 25	> 25	> 25	9.68	> 25	21.5	> 25	18.6	> 25	> 25	> 25	14.7	> 25	16.1	> 25	10.1	> 25	12.9	> 25
CCOC(=O)N(O)c1ccc(/C=C/c2ccccc2)cc1	2.98	41.9	2	6.75	9.18	37.4	8.38	> 93.7	5.3	25.1	7.22	20.6	13.2	> 90.4	7.21	> 84.2	5.08	38.8	3.85	14.5
C[C@@H](C[C@H](CCO)c1ccccc1)c1ccc2ccccc2c1	1.71	3.14	1.62	3.12	1.5	2.91	1.65	3.01	1.63	3.14	1.6	2.96	1.45	2.91	1.51	2.88	1.85	4.26	1.57	2.91
COc1cc(CCc2ccncc2)cc(OC)c1OC	–	> 100	–	> 100	–	> 100	–	> 100	–	> 100	–	> 100	–	> 100	–	> 100	–	> 100	–	> 100
CC/C(C)=C1\CCC(CN(C)C)C1=O (stereo not given)	–	49.2	–	31.1	–	29.2	–	33.2	–	53.4	–	40.7	–	40.4	–	32	–	17.1	–	91.5
O=S(=O)(Nc1ccc(Cl)c(Cl)c1)c1ccc(-c2cnc(C3CC3)o2)cc1	0.672	17.2	10.3	36.1	0.405	15.7	0.606	30.7	0.336	15.3	0.586	19.3	0.376	8.44	1.16	20.6	0.612	43.5	0.478	14.6
Cc1ccc(C)c(NC(=O)C(=O)Nn2c(=S)[nH]c3ccccc3c2=O)c1	–	> 100	–	> 100	–	> 100	–	> 100	–	> 100	–	> 100	–	> 100	–	> 100	–	> 100	–	> 100
C[C@H]1CC[C@@H]2[C@@H](C)[C@H]3[C@H](C[C@H]4[C@@H]5CC=C6C[C@@H](O)CC[C@]6(C)[C@H]5CC[C@]34C)N2C1	–	> 100	–	> 100	–	> 100	–	> 100	–	> 100	–	> 100	–	46.1	–	> 100	–	> 100	–	> 100
CC1OC(=O)N2CCC=CC12 (stereo not given)	–	> 100	–	> 100	–	> 100	–	> 100	–	> 100	–	> 100	–	> 100	–	> 100	–	> 100	–	> 100
O=C1/C(=C/c2ccc(O)cc2)Oc2ccccc21	–	> 100	–	> 100	–	> 100	–	> 100	–	> 100	–	> 100	–	> 100	–	> 100	–	> 100	–	> 100
Cc1c(C2CCSc3ccccc3N2)sc2ccccc12 (stereo not given)	–	> 100	–	> 100	–	> 100	–	> 100	–	> 100	–	> 100	–	> 100	–	> 100	–	> 100	–	> 100
Cc1ccc([N+]2=NC(c3ccccc3)=NN(c3ccccc3)C2)cc1	–	> 100	–	> 100	–	> 100	–	> 100	–	> 100	–	> 100	–	> 100	–	> 100	–	> 100	–	73.6
O/N=C1\C(=C\c2ccc3c(c2)OCCO3)CCCC1C(NO)c1ccc2c(c1)OCCO2 (stereo not given)	–	> 100	–	50.7	–	68.6	–	> 100	–	> 100	–	29.1	–	59.3	–	> 100	–	> 100	–	30.1
N#CC(C#N)C(c1ccccc1)c1ccccc1	–	> 100	–	> 100	–	> 100	–	> 100	–	> 100	–	> 100	–	> 100	–	> 100	–	> 100	–	> 100
CN1C/C(=C\c2ccc(C(=O)O)cc2)C(=O)/C(=C/c2ccc(C(=O)O)cc2)C1	–	> 100	–	> 100	–	> 100	–	> 100	–	> 100	–	> 100	–	> 100	–	> 100	–	> 100	–	> 100
NC1=Nc2ccccc2Sc2ccccc21	–	> 100	–	> 100	–	> 100	–	> 100	–	> 100	–	> 100	–	> 100	–	> 100	–	> 100	–	> 100
C[C@@H]1Cc2c(ccc3[nH]ncc23)[C@@H](c2ccc(NC3CN(CCCF)C3)cn2)N1CC(F)(F)F	30.8	> 100	17.9	44.7	16.7	35	22.2	53	17.5	34.3	16.1	31.4	6.8	22.9	32.9	> 100	18.6	47.4	14.3	28.2
